# Marks after values point to notes of the source that are not given here.
# What was measured:
# [1] = system: human coronary artery smooth muscle cells; test: Anti-proliferative activity of rapamycin with varying concentrations of mycophenolic acid; type: cell-based; details: non-synchronized cultured human coronary artery smooth muscle cells, two percent fetal bovine serum, mycophenolic acid zero to one thousand nano molar, FIG. 52
# Description: The multiple curves represent various concentrations of mycophenolic acid ranging from zero to one thousand nano molar concentrations. […] This potentiation observed in cultured coronary artery smooth muscle cells preferably translates to an enhancement in anti-restenotic efficacy following vascular injury and a reduction in the required amount of either agent to achieve the desired anti-restenotic effect.
# [2] = In vivo release kinetics from rapamycin/mycophenolic acid coatings, porcine pharmacokinetics studies
# Description: The topcoat is two hundred micro grams.
# [3] = system: neointimal hyperplasia and inflammation; test: Rapamycin compared with dexamethasone delivered from a stent; type: in vivo; details: for Inflammation Score: uncoated 0.97 ± 1.00; for Neointimal Area: uncoated 5.24 ± 1.65; for % Area Stenosis: uncoated 54 ± 19
# Description: Dexamethasone, a potent steroidal anti-inflammatory agent, was used as a reference standard.
# [4] = system: human coronary artery smooth muscle cell proliferation; test: In vitro cell culture study of coronary artery smooth muscle cell proliferation; type: cell-based
# Description: FIG. 51 is a graph of the inhibition of coronary artery smooth muscle cells by trichostatin A in a cell culture study.
Structure (SMILES),Inflammation Score [3],Neointimal Area [3],% Area Stenosis [3],also measured
COc1c(C)c2c(c(O)c1C/C=C(\C)CCC(=O)O)C(=O)OC2 [mycophenolic acid],–,–,–,"effect on the anti-proliferative rapamycin dose response curve [1]: potentiates the anti-proliferative activity of rapamycin; in vivo release of mycophenolic acid from the basecoat ([2]; EVA/BMA basecoat 600 μg with 30% rapamycin and 30% mycophenolic acid, BMA topcoat 0/100/200 μg, FIG. 54): elutes more completely over a shorter duration than the rapamycin"
"CO[C@H]1C[C@@H]2CC[C@@H](C)[C@@](O)(O2)C(=O)C(=O)N2CCCC[C@H]2C(=O)O[C@H]([C@H](C)C[C@@H]2CC[C@@H](O)[C@H](OC)C2)CC(=O)[C@H](C)/C=C(\C)[C@@H](O)[C@@H](OC)C(=O)[C@H](C)C[C@H](C)/C=C/C=C/C=C/1C [Rapamycin, rapamycin]",0.13 ± 0.19,2.47 ± 0.94* mm^2,26 ± 10 %,"in vivo release rate ([2]; PVDF basecoat 600 μg, rapamycin and mycophenolic acid equally two thirds by weight, 200 μg PVDF topcoat, FIG. 56): slower release rate than that of mycophenolic acid"
"C[C@@H]1C[C@H]2[C@@H]3CCC4=CC(=O)C=C[C@]4(C)[C@@]3(F)[C@@H](O)C[C@]2(C)[C@@]1(O)C(=O)CO [Dexamethasone, dexamethasone]",0.39 ± 0.24,4.31 ± 3.02 mm^2,45 ± 31%,–
CC(/C=C/C(=O)NO)=C\[C@@H](C)C(=O)c1ccc(N(C)C)cc1 [trichostatin A],–,–,–,"inhibition of human coronary artery smooth muscle cell proliferation ([4]; FIG. 51): completely inhibit; IC50 ([4]; human coronary artery smooth muscle cells, read-out: anti-proliferative IC50): ~6 nM"

# — patent US20050187608A1, “Radioprotective compound coating for medical devices” (priority 2004, published 2005)
